US9175003B2, “Substituted azoanthracene derivatives and intermediates for preparation thereof” (TransTech Pharma, LLC, priority 2009, dated 2015)
pEC50: −log10 of the molar value.

The compounds below were run against human GLP-1 receptor (Homo sapiens (Human), UniProt P43220). Settings: read-out: Mean EC50; cAMP, HTRF detection, 30 min at 37° C., HEK-293 cells expressing cloned human GLP-1 receptor.
Sequence of human GLP-1 receptor (P43220 24-463): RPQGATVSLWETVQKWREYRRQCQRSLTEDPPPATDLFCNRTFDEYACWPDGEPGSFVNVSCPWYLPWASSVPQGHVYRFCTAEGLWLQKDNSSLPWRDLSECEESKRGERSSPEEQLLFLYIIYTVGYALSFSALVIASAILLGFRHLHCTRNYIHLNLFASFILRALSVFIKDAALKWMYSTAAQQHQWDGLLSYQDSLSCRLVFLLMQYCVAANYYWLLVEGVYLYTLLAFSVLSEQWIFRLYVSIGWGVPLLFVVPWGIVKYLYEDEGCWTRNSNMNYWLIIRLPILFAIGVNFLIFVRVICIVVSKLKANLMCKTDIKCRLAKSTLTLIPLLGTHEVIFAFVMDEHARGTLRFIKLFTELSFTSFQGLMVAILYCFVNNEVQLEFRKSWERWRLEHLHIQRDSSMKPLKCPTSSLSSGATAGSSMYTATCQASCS

Row | pEC50 | Compound
1 | 6.82 | Cc1cc(Oc2ccc(C[C@H](NC(=O)[C@@H]3Cc4cc5c(cc4CN3C(=O)c3ccccc3)O[C@@H](c3ccc(OCc4ccc(Cl)c(Cl)c4)cc3)CO5)C(=O)O)cc2)ccn1 [Example 177, (S)-2-({(3S,8S)-7-Benzoyl-3-[4-(3,4-dichloro-benzyloxy)-phenyl]-2,3,6,7,8,9-hexahydro-[1,4]dioxino[2,3-g]isoquinoline-8-carbonyl}-amino)-3-[4-(2-methyl-pyridin-4-yloxy)-phenyl]-propionic acid]
2 | 6.51 | CCC[C@@H](c1ccccc1)N1Cc2cc3c(cc2C[C@H]1C(=O)N[C@@H](Cc1ccc(-c2ccc(C#N)cc2)cc1)C(=O)O)OC[C@H](c1ccc(OCc2ccc(Cl)c(Cl)c2)cc1)O3 [Example 178, (S)-3-(4′-Cyano-biphenyl-4-yl)-2-{[(3S,8S)-3-[4-(3,4-dichloro-benzyloxy)-phenyl]-7-((S)-1-phenyl-butyl)-2,3,6,7,8,9-hexahydro-[1,4]dioxino[2,3-g]isoquinoline-8-carbonyl]-amino}-propionic acid]
3 | 8.52 | CC[C@@H](c1ccccc1)N1Cc2cc3c(cc2C[C@H]1C(=O)N[C@@H](Cc1ccc(-c2cc(C)nn2C)cc1)C(=O)O)OC[C@H](c1ccc(OCc2ccc(Cl)c(Cl)c2)cc1)O3 [Example 180, (S)-2-{[(3S,8S)-3-[4-(3,4-Dichloro-benzyloxy)-phenyl]-7-((S)-1-phenyl-propyl)-2,3,6,7,8,9-hexahydro-[1,4]dioxino[2,3-g]isoquinoline-8-carbonyl]-amino}-3-[4-(2,5-dimethyl-2H-pyrazol-3-yl)-phenyl]-propionic acid]
4 | 7.80 | CC[C@@H](c1ccccc1)N1Cc2cc3c(cc2C[C@H]1C(=O)N[C@@H](Cc1ccc(Oc2ccnc(C)c2)cc1)C(=O)O)OC[C@H](c1ccc(OCc2ccc(Cl)c(Cl)c2)cc1)O3 [Example 181, (S)-2-{[(3S,8S)-3-[4-(3,4-Dichloro-benzyloxy)-phenyl]-7-((S)-1-phenyl-propyl)-2,3,6,7,8,9-hexahydro-[1,4]dioxino[2,3-g]isoquinoline-8-carbonyl]-amino}-3-[4-(2-methyl-pyridin-4-yloxy)-phenyl]-propionic acid]
5 | 7.54 | CC[C@@H](c1ccccc1)N1Cc2cc3c(cc2C[C@H]1C(=O)N[C@@H](Cc1ccc(-c2ccnc4c2CCC4)cc1)C(=O)O)OC[C@H](c1ccc(OCc2ccc(Cl)c(Cl)c2)cc1)O3 [Example 182, (S)-2-{[(3S,8S)-3-[4-(3,4-Dichloro-benzyloxy)-phenyl]-7-((S)-1-phenyl-propyl)-2,3,6,7,8,9-hexahydro-[1,4]dioxino[2,3-g]isoquinoline-8-carbonyl]-amino}-3-[4-(6,7-dihydro-5H-[1]pyrindin-4-yl)-phenyl]-propionic acid]
6 | 7.13 | CC[C@@H](c1ccccc1)N1Cc2cc3c(cc2C[C@H]1C(=O)N[C@@H](Cc1ccc(Oc2ccncc2)cc1)C(=O)O)OC[C@H](c1ccc(OCc2ccc(Cl)c(Cl)c2)cc1)O3 [Example 184]
7 | 6.92 | CC[C@@H](c1ccccc1)N1Cc2cc3c(cc2C[C@H]1C(=O)N[C@@H](Cc1ccc(Oc2cccnc2)cc1)C(=O)O)OC[C@H](c1ccc(OCc2ccc(Cl)c(Cl)c2)cc1)O3 [Example 185, (S)-2-{[(3S,8S)-3-[4-(3,4-Dichloro-benzyloxy)-phenyl]-7-((S)-1-phenyl-propyl)-2,3,6,7,8,9-hexahydro-[1,4]dioxino[2,3-g]isoquinoline-8-carbonyl]-amino}-3-[4-(pyridin-3-yloxy)-phenyl]-propionic acid]
8 | 6.59 | CC[C@@H](c1ccccc1)N1Cc2cc3c(cc2C[C@H]1C(=O)N[C@@H](Cc1ccc(-c2ccnnc2)cc1)C(=O)O)OC[C@H](c1ccc(OCc2ccc(Cl)c(Cl)c2)cc1)O3 [Example 186, (S)-2-{[(3S,8S)-3-[4-(3,4-Dichloro-benzyloxy)-phenyl]-7-((S)-1-phenyl-propyl)-2,3,6,7,8,9-hexahydro-[1,4]dioxino[2,3-g]isoquinoline-8-carbonyl]-amino}-3-(4-pyridazin-4-yl-phenyl)-propionic acid]
9 | 7.85 | CC[C@@H](c1ccccc1)N1Cc2cc3c(cc2C[C@H]1C(=O)N[C@@H](Cc1ccc(-c2cc(C)nc(C)c2)cc1)C(=O)O)OC[C@H](c1ccc(OCc2ccc(Cl)c(Cl)c2)cc1)O3 [Example 188, (S)-2-{[(3S,8S)-3-[4-(3,4-Dichloro-benzyloxy)-phenyl]-7-((S)-1-phenyl-propyl)-2,3,6,7,8,9-hexahydro-[1,4]dioxino[2,3-g]isoquinoline-8-carbonyl]-amino}-3-[4-(2,6-dimethyl-pyridin-4-yl)-phenyl]-propionic acid]
10 | 7.51 | CC[C@@H](c1ccccc1)N1Cc2cc3c(cc2C[C@H]1C(=O)N[C@@H](Cc1ccc(Oc2ccnc(C)c2C)cc1)C(=O)O)OC[C@H](c1ccc(OCc2ccc(Cl)c(Cl)c2)cc1)O3 [Example 189, (S)-2-{[(3S,8S)-3-[4-(3,4-Dichloro-benzyloxy)-phenyl]-7-((S)-1-phenyl-propyl)-2,3,6,7,8,9-hexahydro-[1,4]dioxino[2,3-g]isoquinoline-8-carbonyl]-amino}-3-[4-(2,3-dimethyl-pyridin-4-yloxy)-phenyl]-propionic acid]
11 | 7.96 | CC[C@@H](c1ccccc1)N1Cc2cc3c(cc2C[C@H]1C(=O)N[C@@H](Cc1ccc(-c2cc(C)ncc2C)cc1)C(=O)O)OC[C@H](c1ccc(OCc2ccc(Cl)c(Cl)c2)cc1)O3 [Example 190, (S)-2-{[(3S,8S)-3-[4-(3,4-Dichloro-benzyloxy)-phenyl]-7-((S)-1-phenyl-propyl)-2,3,6,7,8,9-hexahydro-[1,4]dioxino[2,3-g]isoquinoline-8-carbonyl]-amino}-3-[4-(2,5-dimethyl-pyridin-4-yl)-phenyl]-propionic acid]
12 | 7.18 | CC[C@@H](c1ccccc1)N1Cc2cc3c(cc2C[C@H]1C(=O)N[C@@H](Cc1ccc(-c2ccnn2C)cc1)C(=O)O)OC[C@H](c1ccc(OCc2ccc(Cl)c(Cl)c2)cc1)O3 [Example 191, (S)-2-{[(3S,8S)-3-[4-(3,4-Dichloro-benzyloxy)-phenyl]-7-((S)-1-phenyl-propyl)-2,3,6,7,8,9-hexahydro-[1,4]dioxino[2,3-g]isoquinoline-8-carbonyl]-amino}-3-[4-(2-methyl-2H-pyrazol-3-yl)-phenyl]-propionic acid]
13 | 6.86 | CC[C@@H](c1ccccc1)N1Cc2cc3c(cc2C[C@H]1C(=O)N[C@@H](Cc1ccc(-c2ccnc(O)c2)cc1)C(=O)O)OC[C@H](c1ccc(OCc2ccc(Cl)c(Cl)c2)cc1)O3 [Example 195, (S)-2-{[(3S,8S)-3-[4-(3,4-Dichloro-benzyloxy)-phenyl]-7-((S)-1-phenyl-propyl)-2,3,6,7,8,9-hexahydro-[1,4]dioxino[2,3-g]isoquinoline-8-carbonyl]-amino}-3-[4-(2-hydroxy-pyridin-4-yl)-phenyl]-propionic acid]
14 | 6.90 | CC[C@@H](c1ccccc1)N1Cc2cc3c(cc2C[C@H]1C(=O)N[C@@H](Cc1ccc(-c2ccc(C)nc2)cc1)C(=O)O)OC[C@H](c1ccc(OCc2ccc(Cl)c(Cl)c2)cc1)O3 [Example 196, (S)-2-{[(3S,8S)-3-[4-(3,4-Dichloro-benzyloxy)-phenyl]-7-((S)-1-phenyl-propyl)-2,3,6,7,8,9-hexahydro-[1,4]dioxino[2,3-g]isoquinoline-8-carbonyl]-amino}-3-[4-(6-methyl-pyridin-3-yl)-phenyl]-propionic acid]
15 | 6.58 | CC[C@@H](c1ccccc1)N1Cc2cc3c(cc2C[C@H]1C(=O)N[C@@H](Cc1ccc(-c2cnn(C)c2)cc1)C(=O)O)OC[C@H](c1ccc(OCc2ccc(Cl)c(Cl)c2)cc1)O3 [Example 197, (S)-2-{[(3S,8S)-3-[4-(3,4-Dichloro-benzyloxy)-phenyl]-7-((S)-1-phenyl-propyl)-2,3,6,7,8,9-hexahydro-[1,4]dioxino[2,3-g]isoquinoline-8-carbonyl]-amino}-3-[4-(1-methyl-1H-pyrazol-4-yl)-phenyl]-propionic acid]
16 | 7.21 | CC[C@@H](c1ccccc1)N1Cc2cc3c(cc2C[C@H]1C(=O)N[C@@H](Cc1ccc(-c2ccnc(CO)c2)cc1)C(=O)O)OC[C@H](c1ccc(OCc2ccc(Cl)c(Cl)c2)cc1)O3 [Example 206, (S)-2-{[(3S,8S)-3-[4-(3,4-Dichloro-benzyloxy)-phenyl]-7-((S)-1-phenyl-propyl)-2,3,6,7,8,9-hexahydro-[1,4]dioxino[2,3-g]isoquinoline-8-carbonyl]-amino}-3-[4-(2-hydroxymethyl-pyridin-4-yl)-phenyl]-propionic acid]
17 | 7.14 | CC[C@@H](c1ccccc1)N1Cc2cc3c(cc2C[C@H]1C(=O)N[C@@H](Cc1ccc(-c2ccnc(N)c2)cc1)C(=O)O)OC[C@H](c1ccc(OCc2ccc(Cl)c(Cl)c2)cc1)O3 [Example 208, (S)-3-[4-(2-Amino-pyridin-4-yl)-phenyl]-2-{[(3S,8S)-3-[4-(3,4-dichloro-benzyloxy)-phenyl]-7-((S)-1-phenyl-propyl)-2,3,6,7,8,9-hexahydro-[1,4]dioxino[2,3-g]isoquinoline-8-carbonyl]-amino}-propionic acid]
18 | 7.68 | CC[C@@H](c1ccccc1)N1Cc2cc3c(cc2C[C@H]1C(=O)N[C@@H](Cc1ccc(-c2ccnc4ccccc24)cc1)C(=O)O)OC[C@H](c1ccc(OCc2ccc(Cl)c(Cl)c2)cc1)O3 [Example 211, (S)-2-{[(3S,8S)-3-[4-(3,4-Dichloro-benzyloxy)-phenyl]-7-((S)-1-phenyl-propyl)-2,3,6,7,8,9-hexahydro-[1,4]dioxino[2,3-g]isoquinoline-8-carbonyl]-amino}-3-(4-quinolin-4-yl-phenyl)-propionic acid]

Row | Compound | pEC50
19 | CC[C@@H](c1ccccc1)N1Cc2cc3c(cc2C[C@H]1C(=O)N[C@@H](Cc1ccc(-c2ccnc(C)c2C)cc1)C(=O)O)OC[C@H](c1ccc(OCc2ccc(Cl)c(Cl)c2)cc1)O3 [Example 179, (S)-2-{[(3S,8S)-3-[4-(3,4-Dichloro-benzyloxy)-phenyl]-7-((S)-1-phenyl-propyl)-2,3,6,7,8,9-hexahydro-[1,4]dioxino[2,3-g]isoquinoline-8-carbonyl]-amino}-3-[4-(2,3-dimethyl-pyridin-4-yl)-phenyl]-propionic acid] | 8.30
